Reference: patent US20200308144A1, “Multimeric piperidine derivatives” (Bellicum Pharmaceuticals, Inc., priority 2017, published 2020)
Read-outs that look alike come from different tables or passages of the source.

How the values were obtained:
[1] = system: cells; assay: AP1903 amount needed in vitro for effective signaling of cells; assay type: cell-based; conditions: converted with 1600 Da
Protocol: The fixed dose of AP1903 for injection used, for example, may be 0.4 mg/kg intravenously infused over 2 hours. The amount of AP1903 needed in vitro for effective signaling of cells is 10-100 nM (1600 Da MVV). This equates to 16-160 μg/L or ˜[…] (1.6-160 μg/kg). Doses up to 1 mg/kg were well-tolerated in the Phase 1 study of AP1903 discussed above. Therefore, 0.4 mg/kg may be a safe and effective dose of AP1903 for this Phase I study in combination with the therapeutic cells.

[2] = cited from earlier work
[3] = system: cells; conditions: cited from earlier work
[4] = cited from earlier work; remark: listed apart in the source
[5] = Solubility in water and buffers; assay type: physicochemical; conditions: buffer system None (unbuffered water)
Excerpt: By “soluble” or “solubility” is meant the property of a compound to dissolve in water, buffer, or other liquid, which may be measured in terms of mg·mL^−1. […] Examples of pharmaceutically acceptable buffers include those provided in Remington: The Science and Practice of Pharmacy, 22 ed., 2013, Pharmaceutical Press, London (Allen, L. V., Jr., ed.). […] Methods for evaluating the solubility of a compound include, for example, a 96-well plate-based assay in which aqueous suspensions of the compound are vacuum-filtered and the concentration of compound is measured by UV spectrophotometry (Roy et al (2001) Drug Dev Ind Pharm 27(1):107-109).

[6] = Stability of salt forms under accelerated conditions of heat and humidity; assay type: physicochemical
Protocol: The stability of different salt forms of Compound A was assayed under accelerated conditions of heat and humidity for 7 and for 14 days. All salts were […] up to 40° C. and 75% relative humidity (RH), but appeared to degrade under severe temperature and humidity conditions of 80° C. with or without 80% relative humidity. (Table 3)

| SMILES | amount needed in vitro for effective signaling of cells, converted [1] | solubility in water [2] | amount needed in vitro for effective signaling of cells [3] | plasma levels versus dose ([4]; 0.01-1.0 mg/kg IV over 2 hours) | plasma level as % of maximal concentration ([4]; 0.5 hours post-dose) | plasma level as % of maximal concentration ([4]; 2 hours post-dose) | plasma level as % of maximal concentration ([4]; 10 hours post-dose) | well-tolerated doses ([4]; Phase 1 study) | mean Cmax ([4]; healthy volunteers, single doses 0.01-1.0 mg/kg infused IV over 2 hours) | Inherent pH in parenthesis [5] | Assay (%) ([6]; 25° C./60% RH, 7 D) | Assay (%) ([6]; 25° C./60% RH, 14 D) | Assay (%) ([6]; 40° C./75% RH, 7 D) | Assay (%) ([6]; 40° C./75% RH, 14 D) | Assay (%) ([6]; 80° C., 7 D) | Assay (%) ([6]; 80° C., 14 D) | Assay (%) ([6]; 80° C./80% RH, 7 D) | Assay (%) ([6]; 80° C./80% RH, 14 D) |
| --- | --- | --- | --- | --- | --- | --- | --- | --- | --- | --- | --- | --- | --- | --- | --- | --- | --- | --- |
| CC[C@H](C(=O)N1CCCC[C@H]1C(=O)O[C@H](CCc1ccc(OC)c(OC)c1)c1cccc(OCC(=O)NCCNC(=O)COc2cccc([C@@H](CCc3ccc(OC)c(OC)c3)OC(=O)[C@@H]3CCCCN3C(=O)[C@@H](CC)c3cc(OC)c(OC)c(OC)c3)c2)c1)c1cc(OC)c(OC)c(OC)c1 [rimiducid] | 16 to 160 µg/L | approximately 700 pM | 10 to 100 nM | directly proportional to dose | approximately 18% | ~7% | ~1% | up to 1 mg/kg | 10 to 1275 ng/mL |  |  |  |  |  |  |  |  |  |
| CC[C@H](C(=O)N1CCCC[C@H]1C(=O)O[C@H](CCc1ccc(OC)c(OC)c1)c1cccc(OCCN(C)CCN(C)CCOc2cccc([C@@H](CCc3ccc(OC)c(OC)c3)OC(=O)[C@@H]3CCCCN3C(=O)[C@@H](CC)c3cc(OC)c(OC)c(OC)c3)c2)c1)c1cc(OC)c(OC)c(OC)c1.Cl [Compound A.2] |  |  |  |  |  |  |  |  |  | 2.9 | 97.3% | 96.7% | 97.2% | 96.9% | 96.3% | 94.8% | 95.6% | 94.4% |
| CC[C@H](C(=O)N1CCCC[C@H]1C(=O)O[C@H](CCc1ccc(OC)c(OC)c1)c1cccc(OCCN(C)CCN(C)CCOc2cccc([C@@H](CCc3ccc(OC)c(OC)c3)OC(=O)[C@@H]3CCCCN3C(=O)[C@@H](CC)c3cc(OC)c(OC)c(OC)c3)c2)c1)c1cc(OC)c(OC)c(OC)c1.O=S(=O)(O)c1ccccc1 |  |  |  |  |  |  |  |  |  | 4.3 | 92.2% | 91.7% | 92.2% | 92.2% | 91.5% | 90.6% | 91.2% | 90. % |
| CC[C@H](C(=O)N1CCCC[C@H]1C(=O)O[C@H](CCc1ccc(OC)c(OC)c1)c1cccc(OCCN(C)CCN(C)CCOc2cccc([C@@H](CCc3ccc(OC)c(OC)c3)OC(=O)[C@@H]3CCCCN3C(=O)[C@@H](CC)c3cc(OC)c(OC)c(OC)c3)c2)c1)c1cc(OC)c(OC)c(OC)c1.O=S(=O)(O)O [Sulphate] |  |  |  |  |  |  |  |  |  | 3.06 | 96.2% | 95.0% | 95.9% | 95.6% | 95.3% | 94.6% | 88.2% | 85.4% |
| CC[C@H](C(=O)N1CCCC[C@H]1C(=O)O[C@H](CCc1ccc(OC)c(OC)c1)c1cccc(OCCN(C)CCN(C)CCOc2cccc([C@@H](CCc3ccc(OC)c(OC)c3)OC(=O)[C@@H]3CCCCN3C(=O)[C@@H](CC)c3cc(OC)c(OC)c(OC)c3)c2)c1)c1cc(OC)c(OC)c(OC)c1.O=P(O)(O)O [Compound A.1] |  |  |  |  |  |  |  |  |  | 3.9 | 96.2% | 95.9% | 95.6% | 95.9% | 94.9% | 93.3% | 85.2% | 77.7% |
| CC[C@H](C(=O)N1CCCC[C@H]1C(=O)O[C@H](CCc1ccc(OC)c(OC)c1)c1cccc(OCCN(C)CCN(C)CCOc2cccc([C@@H](CCc3ccc(OC)c(OC)c3)OC(=O)[C@@H]3CCCCN3C(=O)[C@@H](CC)c3cc(OC)c(OC)c(OC)c3)c2)c1)c1cc(OC)c(OC)c(OC)c1.O=C(O)/C=C/C(=O)O [Fumarate] |  |  |  |  |  |  |  |  |  | 3.4 | 97.5% | 97.1% | 97.2% | 96.8% | 96.6% | 95.8% | 87.5% | 81.2% |
